# Data: PubChem BioAssay (NCI)
#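 A five-concentration, 48-hour dose response in 96-well plates underlies each endpoint, interpolated linearly between surrounding concentrations. GI50 marks 50% less growth. The concentration for full growth arrest is given as TGI.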
# Assays:
# Assay in all cases: growth of human tumour cells (NCI), 48 h
# [1] = system: 786-0 renal
# [2] = system: A498 renal
# [3] = system: A549 NSCLC
# [4] = system: ACHN renal
# [5] = system: BT-549 breast
# [6] = system: CAKI-1 renal
# [7] = system: CCRF-CEM leukemia
# [8] = system: COLO 205 colon
# [9] = system: DU-145 prostate
# [10] = system: EKVX NSCLC
# [11] = system: HCC-2998 colon
# [12] = system: HCT-116 colon
# [13] = system: HCT-15 colon
# [14] = system: HL-60(TB) leukemia
# [15] = system: HOP-62 NSCLC
# [16] = system: HOP-92 NSCLC
# [17] = system: HS 578T breast
# [18] = system: HT29 colon
# [19] = system: IGROV1 ovarian
# [20] = system: K-562 leukemia
# [21] = system: KM12 colon
# [22] = system: LOX IMVI melanoma
# [23] = system: M14 melanoma
# [24] = system: MALME-3M melanoma
# [25] = system: MCF7 breast
# [26] = system: MDA-MB-231 breast
# [27] = system: MDA-MB-435
# [28] = system: MDA-MB-468 breast
# [29] = system: MOLT-4 leukemia
# [30] = system: NCI-H226 lung
# [31] = system: NCI-H23 lung
# [32] = system: NCI-H460 lung
# [33] = system: NCI-H522 lung
# [34] = system: NCI/ADR-RES ovarian
# [35] = system: OVCAR-3 ovarian
# [36] = system: OVCAR-4 ovarian
# [37] = system: OVCAR-5 ovarian
# [38] = system: OVCAR-8 ovarian
# [39] = system: PC-3 prostate
# [40] = system: RPMI-8226 leukemia
# [41] = system: RXF 393 renal
# [42] = system: SF-268 CNS
# [43] = system: SF-295 CNS
# [44] = system: SF-539 CNS
# [45] = system: SK-MEL-2 melanoma
# [46] = system: SK-MEL-28 melanoma
# [47] = system: SK-MEL-5 melanoma
# [48] = system: SK-OV-3 ovarian
# [49] = system: SN12C renal
# [50] = system: SNB-19 CNS
# [51] = system: SNB-75 CNS
# [52] = system: SR leukemia
# [53] = system: SW-620 colon
# [54] = system: T-47D breast
# [55] = system: TK-10 renal
# [56] = system: U251 CNS
# [57] = system: UACC-257 melanoma
# [58] = system: UACC-62 melanoma
# [59] = system: UO-31 renal
smiles,measurement,setting,value
O=C(Nc1ccc(Cl)c([N+](=O)[O-])c1)Nc1ccc(Cl)c([N+](=O)[O-])c1,GI50,[1],2.91 µM
same,TGI,[1],11.9 µM
same,GI50,[2],3.33 µM
same,TGI,[2],10.8 µM
same,GI50,[3],4.29 µM
same,TGI,[3],16.9 µM
same,GI50,[4],2.69 µM
same,TGI,[4],7.44 µM
same,GI50,[5],2.79 µM
same,TGI,[5],9.94 µM
same,GI50,[6],2.98 µM
same,TGI,[6],10.5 µM
same,GI50,[7],2.95 µM
same,TGI,[7],11.3 µM
same,GI50,[8],2.69 µM
same,TGI,[8],6.97 µM
same,GI50,[9],3.66 µM
same,TGI,[9],13.8 µM
same,GI50,[10],3.56 µM
same,TGI,[10],13.1 µM
same,GI50,[11],3.32 µM
same,TGI,[11],11.9 µM
same,GI50,[12],3.19 µM
same,TGI,[12],9.34 µM
same,GI50,[13],2.83 µM
same,TGI,[13],10.9 µM
same,GI50,[14],2.72 µM
same,TGI,[14],7.11 µM
same,GI50,[15],4.63 µM
same,TGI,[15],17.2 µM
same,GI50,[16],2.28 µM
same,TGI,[16],6.53 µM
same,GI50,[17],5.46 µM
same,TGI,[17],31.3 µM
same,GI50,[18],3.34 µM
same,TGI,[18],13.3 µM
same,GI50,[19],3.02 µM
same,TGI,[19],9.14 µM
same,GI50,[20],2.8 µM
same,TGI,[20],14.1 µM
same,GI50,[21],3.49 µM
same,TGI,[21],12.6 µM
same,GI50,[22],3.13 µM
same,TGI,[22],9.64 µM
same,GI50,[23],4.04 µM
same,TGI,[23],15 µM
same,GI50,[24],3.02 µM
same,TGI,[24],11.8 µM
same,GI50,[25],2.31 µM
same,TGI,[25],7.43 µM
same,GI50,[26],3.05 µM
same,TGI,[26],8.99 µM
same,GI50,[27],3.71 µM
same,TGI,[27],12.8 µM
same,GI50,[28],2.2 µM
same,TGI,[28],6.48 µM
same,GI50,[29],3.12 µM
same,TGI,[29],14.6 µM
same,GI50,[30],2.92 µM
same,TGI,[30],10.1 µM
same,GI50,[31],2.36 µM
same,TGI,[31],6.35 µM
same,GI50,[32],3.22 µM
same,TGI,[32],10.6 µM
same,GI50,[33],2.34 µM
same,TGI,[33],5.81 µM
same,GI50,[34],3.2 µM
same,TGI,[34],11.2 µM
same,GI50,[35],2.6 µM
same,TGI,[35],7.91 µM
same,GI50,[36],2.95 µM
same,TGI,[36],11.3 µM
same,GI50,[37],7.12 µM
same,TGI,[37],20.7 µM
same,GI50,[38],4.06 µM
same,TGI,[38],14.7 µM
same,GI50,[39],2.83 µM
same,TGI,[39],10.9 µM
same,GI50,[40],2.27 µM
same,TGI,[40],6.32 µM
same,GI50,[41],11.3 µM
same,TGI,[41],24.8 µM
same,GI50,[42],3.87 µM
same,TGI,[42],15.8 µM
same,GI50,[43],2.46 µM
same,TGI,[43],7.83 µM
same,GI50,[44],4.88 µM
same,TGI,[44],17.3 µM
same,GI50,[45],2.9 µM
same,TGI,[45],9.11 µM
same,GI50,[46],3.78 µM
same,TGI,[46],14.4 µM
same,GI50,[47],2.94 µM
same,TGI,[47],10.5 µM
same,GI50,[48],4.04 µM
same,TGI,[48],15.5 µM
same,GI50,[49],2.92 µM
same,TGI,[49],9.19 µM
same,GI50,[50],2.68 µM
same,TGI,[50],10.5 µM
same,GI50,[51],3.82 µM
same,TGI,[51],19.5 µM
same,GI50,[52],3.57 µM
same,TGI,[52],20.3 µM
same,GI50,[53],3.43 µM
same,TGI,[53],13 µM
same,GI50,[54],2.2 µM
same,TGI,[54],9.1 µM
same,GI50,[55],4.31 µM
same,TGI,[55],16.6 µM
same,GI50,[56],3.02 µM
same,TGI,[56],12.2 µM
same,GI50,[57],4.81 µM
same,TGI,[57],17.2 µM
same,GI50,[58],2.74 µM
same,TGI,[58],10.6 µM
same,GI50,[59],2.82 µM
same,TGI,[59],10.1 µM
